Measured values published in patent US11918581B2, “Combination therapy comprising JAK pathway inhibitor and rock inhibitor” (Incyte Corporation, priority 2021, dated 2024).
“Also recorded” adds a separate entry of the source. Like-named read-outs stand apart in the source and are kept apart here. Values belong to the compound of their own block, whether it stands above or below them.

Tests used:
[1] = system: sclerodermatous chronic GVHD; assay: Example 2: murine model of sclerodermatous chronic GVHD, ruxolitinib and belumosudil; assay type: in vivo, C57Bl/6 mice; conditions: PO d21-56; ruxolitinib 60 mg/kg BID, belumosudil 150 mg/kg QD; FIG. 3
Description: The effects of therapeutic dosing of a JAK1/2 inhibitor (ruxolitinib), a ROCK2 inhibitor (belumosudil), and a combination of the JAK1/2 inhibitor and ROCK2 inhibitor (ruxolitinib+belumosudil) combination were tested in a murine model of sclerodermatous chronic GVHD. Sclerodermatous chronic GVHD was induced in C57Bl/6 mice using a single acute dose of 8.5 Gy of total body irradiation on Day −1. On Day 0, recipient mice were given an intravenous injection of a combination of splenocytes and bone marrow cells from donor LP/J mice. Starting at day 21, animals were dosed with vehicle, ruxolitinib, belumosudil, or the combination of both ruxolitinib and belumosudil (P.O., B.I.D, see Table 4). All animals were monitored on a daily basis to record weight change, survival and GVHD score (see Table 5). On days 33, 36, 39, 42 and 45 all animals were photographed under isoflurane anesthesia to assess disease severity. [table] [table]

acute GVHD (aGVHD) = conditions: patients, cited from earlier work
chronic GVHD (cGVHD) = conditions: patients; cited from earlier work
lung cGVHD = conditions: cited from earlier work
[2] = biological target: human JAK1 (a.a. 837-1142) (Homo sapiens, UniProt P23458); assay: In vitro JAK kinase assay (HTRF), JAK1; assay type: biochemical; conditions: 1 mM ATP
Description: (§1) The catalytic activity of JAK1, JAK2, or JAK3 was assayed by measuring the phosphorylation of a biotinylated peptide. The phosphorylated peptide was detected by homogenous time resolved fluorescence (HTRF). […] Reactions are carried out at room temperature for 1 hour and then stopped with 20 μL 45 mM EDTA, 300 nM SA-APC, 6 nM Eu-Py20 in assay buffer (Perkin Elmer, Boston, MA). Binding to the Europium labeled antibody takes place for 40 minutes and HTRF signal was measured on a Fusion plate reader (Perkin Elmer, Boston, MA).

[3] = biological target: human JAK2 (a.a. 828-1132) (Homo sapiens (Human), UniProt O60674); assay: In vitro JAK kinase assay (HTRF), JAK2; assay type: biochemical; conditions: JAK2/JAK1 IC50 ratio, 1 mM ATP
human JAK2 (a.a. 828-1132), sequence (O60674 828-1132): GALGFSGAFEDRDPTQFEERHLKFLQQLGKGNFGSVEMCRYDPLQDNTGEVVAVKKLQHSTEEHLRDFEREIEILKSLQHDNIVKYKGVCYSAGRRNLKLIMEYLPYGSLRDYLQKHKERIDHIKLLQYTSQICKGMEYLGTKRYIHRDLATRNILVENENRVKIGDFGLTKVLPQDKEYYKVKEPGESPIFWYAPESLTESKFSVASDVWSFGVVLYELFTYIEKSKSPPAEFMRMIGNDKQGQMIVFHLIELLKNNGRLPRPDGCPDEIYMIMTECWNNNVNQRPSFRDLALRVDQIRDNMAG
Description: as §1

[4] = system: sclerodermatous chronic GVHD; assay: Example 1: murine model of sclerodermatous chronic GVHD, itacitinib and belumosudil; assay type: in vivo, C57Bl/6 mice; conditions: PO d21-56; itacitinib 120 mg/kg BID, belumosudil 150 mg/kg QD; FIG. 1
Description: The effects of therapeutic dosing of a selective JAK1 inhibitor (itacitinib), a ROCK2 inhibitor (belumosudil), and a combination the selective JAK1 inhibitor and ROCK2 inhibitor (itacitinib+belumosudil) combination were tested in a murine model of sclerodermatous chronic GVHD. Sclerodermatous chronic GVHD was induced in C57Bl/6 mice using a single acute dose of 8.5 Gy of total body irradiation on Day −1. On Day 0, recipient mice were given an intravenous injection of a combination of splenocytes and bone marrow cells from donor LP/J mice. Starting at day 21, animals were dosed with vehicle, itacitinib, belumosudil, or the combination of both itacitinib and belumosudil (P.O., B.I.D, see Table 2). All animals were monitored on a daily basis to record weight change, survival and GVHD score (see Table 3). On days 33, 36, 39, 42 and 45 all animals were photographed under isoflurane anesthesia to assess disease severity. [table] [table]

GVHD = conditions: 60 mg/kg per day or 120 mg/kg per day; prophylactic and therapeutic dosing; cited from earlier work

SMILES: N#CC[C@H](C1CCCC1)n1cc(-c2ncnc3[nH]ccc23)cn1 [ruxolitinib, (R)-3-(4-(7H-pyrrolo[2,3-d]pyrimidin-4-yl)-1H-pyrazol-1-yl)-3-cyclopentylpropanenitrile]
GVHD score compared to vehicle-treated animals [1]: numerical reduction in GVHD scores | clinical efficacy in acute GVHD (acute GVHD (aGVHD)): clinical efficacy | clinical efficacy in chronic GVHD (chronic GVHD (cGVHD)): clinical efficacy | increase in FEV1 (lung cGVHD; 1 patient): 9% | responses (lung cGVHD; 5 pediatric patients (4 evaluable) with lung cGVHD): 2 | patients able to wean steroids completely (lung cGVHD; 5 pediatric patients): Four out of five | decrease of the steroid requirement (lung cGVHD; final patient): > 50%

SMILES: N#CC[C@]1(n2cc(-c3ncnc4[nH]ccc34)cn2)C[C@H](N2CCC(Oc3cc(CCO)cc(C(F)(F)F)n3)CC2)C1 [Compound 26, {trans-3-(4-{[4-(2-hydroxyethyl)-6-(trifluoromethyl)pyridin-2-yl]oxy}piperidin-1-yl)-1-[4-(7H-pyrrolo[2,3-d]pyrimidin-4-yl)-1H-pyrazol-1-yl]cyclobutyl}acetonitrile]
IC50 [2]: < 10 nM | JAK2/JAK1 [3]: >10

SMILES: N#CC[C@]1(n2cc(-c3ncnc4[nH]ccc34)cn2)C[C@H](N2CCC(Oc3cc(CN4CC(O)C4)cc(C(F)(F)F)n3)CC2)C1 [Compound 11, {trans-3-(4-{[4-[(3-hydroxyazetidin-1-yl)methyl]-6-(trifluoromethyl)pyridin-2-yl]oxy}piperidin-1-yl)-1-[4-(7H-pyrrolo[2,3-d]pyrimidin-4-yl)-1H-pyrazol-1-yl]cyclobutyl}acetonitrile]
IC50 [2]: < 10 nM | JAK2/JAK1 [3]: >10

SMILES: C[C@@H](O)CNCc1cc(OC2CCN([C@H]3C[C@](CC#N)(n4cc(-c5ncnc6[nH]ccc56)cn4)C3)CC2)nc(C(F)(F)F)c1 [Compound 24, {trans-3-(4-{[4-({[(2R)-2-hydroxypropyl]amino}methyl)-6-(trifluoromethyl)pyridin-2-yl]oxy}piperidin-1-yl)-1-[4-(7H-pyrrolo[2,3-d]pyrimidin-4-yl)-1H-pyrazol-1-yl]cyclobutyl}acetonitrile]
IC50 [2]: < 10 nM | JAK2/JAK1 [3]: >10

SMILES: CC(C)NC(=O)COc1cccc(-c2nc(Nc3ccc4[nH]ncc4c3)c3ccccc3n2)c1 [belumosudil, 2-(3-(4-((1H-indazol-5-yl)amino)quinazolin-2-yl)phenoxy)-N-isopropylacetamide, reference compound]
GVHD score compared to vehicle-treated animals [4]: reduction in GVHD scores | GVHD score compared to vehicle-treated animals [1]: no benefit

More lines, main results first:

IC50 [2]: < 10 nM | JAK2/JAK1 [3]: >10
SMILES: N#CCC1(n2cc(-c3ncnc4[nH]ccc34)cn2)CN(C2CCN(C(=O)c3ccnc(C(F)(F)F)c3F)CC2)C1 [Compound 1, {1-{1-[3-Fluoro-2-(trifluoromethyl)isonico-tinoyl]piperidin-4-yl}-3-[4-(7H-pyrrolo[2,3-d]pyrimidin-4-yl)-1H-pyrazol-1-yl]azetidin-3-yl}acetonitrile]
GVHD score compared to vehicle-treated animals [4]: reduction in GVHD scores | GVHD score (GVHD): improvement in the GVHD score | clinical efficacy in acute GVHD (acute GVHD (aGVHD); listed as itacitinib): clinical efficacy; also recorded: significant clinical activity

IC50 [2]: < 10 nM | JAK2/JAK1 [3]: >10
SMILES: N#CCC(C1CCN(c2cccc(Cl)n2)C1)n1cc(-c2ncnc3[nH]ccc23)cn1 (single isomer, unassigned) [Compound 6, 3-[1-(6-chloropyridin-2-yl)pyrrolidin-3-yl]-3-[4-(7H-pyrrolo[2,3-d]pyrimidin-4-yl)-1H-pyrazol-1-yl]propanenitrile]
